Results taken from patent publication US20240066089A1, “ARTOCARPUS HETEROPHYLLUS COMPOSITION AND METHOD OF PROMOTING URINARY TRACT HEALTH” (priority 2022, published 2024).
≈ marks a conversion by molar mass, not a printed value.

Tests used:
[1] = system: testosterone induced BPH model rats; assay: Prostate growth in testosterone-induced BPH model rats; format: in vivo, Wistar rats; details: 28 days; for Growth inhibition (%): prostate growth, Fina group, 1 mg/kg, mean ± SD n = 6
[2] = target: 5-alpha-reductase; assay: In vitro 5-alpha-reductase assay (NADPH absorbance at 340 nm, liver S9 fraction); format: biochemical; details: 20 μg liver S9 fraction, 6 minutes at 37° C., Finasteride 20-70 ng/mL
Method: In vitro 5-alpha-reductase assay was performed according to Sun et al. (1998) with some modifications. NADPH has characteristic absorbance at 340 nm, and the absorbance spectrum may be used to measure the decline in NADPH concentration as a measure of enzyme activity. Briefly, the reaction mixture contained 40 mM phosphate buffer pH 7.0, 93 μM NADPH, 2.265 μM testosterone and 20 μg liver S9 fraction with or without different concentrations of the extract (2-6 μg/mL) or reference compound Finasteride (20-70 ng/mL), incubated for 6 minutes at 37° C. The absorbance was read at 340 nm in UV-visible spectrophotometer. IC50 values were determined for the extract and Finasteride.

[3] = system: testosterone induced BPH model rats; assay: Antioxidant activity in prostate tissue of BPH model rats (SOD, catalase, GSH, glutathione reductase); format: in vivo, Wistar rats; details: Finasteride 1 mg/kg, in comparison with BPH group (p<0.001)
[4] = system: testosterone induced BPH model rats; assay: Histopathological examination of prostate tissue of BPH model rats; format: in vivo, Wistar rats; details: H&E stained sections

IC50 value, 5-alpha-reductase activity [2]: 0.0632 µg/mL (≈ 0.17 µM)
SMILES: CC(C)(C)NC(=O)[C@H]1CC[C@H]2[C@@H]3CC[C@H]4NC(=O)C=C[C@]4(C)[C@H]3CC[C@]12C [Finasteride]
prostate weights ([1]; in comparison with BPH control (p<0.001)): reduced significantly | Growth inhibition (%) [1]: 90.22% | Growth inhibition (%) ([1]; listed as Fina): 90.22 ± 10.85% | SOD activity [3]: significantly increased | pathological changes (hyperplastic patterns) in prostate tissue [4]: not evident
